Reference: patent EP0151577B1 (priority 1983, dated 1984)

Legend:
souris [1] = experiment: General pharmacological profile: respiratory rate; format: in vivo; details: souris
From the text: Activite motrice spontanée: MODIGH, K., Central and peripheral effects of 5-hydroxytryptophan on motor activity in mice. Psychopharmacologia (Berlin), 23, 48, 1972. Cadence respiratoire: […], S., and VALZELLI, L. Serotonin and cardiovascular system, Chapter 9, in "Serotonin", Elsevier Publ. Co. Amsterdam 1965.
COHEN, Y. and BLANCHARD, P. Influence de la chelation du calcium sur les effets tensionnels de la sérotonine chez le chien. J. Physiol., 52, 569,1960.
BRAUNWALD, E. Control of myocardial oxygen consumption: Physiologic and clinical considerations. Am. J. Cardiol., 27 (4), 416,1971.

souris [2] = experiment: Rotarod test
Experimental: (§1) Les mesures ont été faites a 15, 30 et 60 minutes après I'administration par voie intrapéritonéale (i.p.) a des souris.

[3] = test system: 5-HT (dans tout le cerveau); experiment: Amount of serotonin (5-HT) in whole brain, spectrophotofluorometric; format: in vivo, souris
From the text: Les quantités de sérotonine ont été estimees par une méthode spectrophotofluorométrique, telle que décrite par Solomon et al. Biochem. Pharmacology 14, 831 (1965). Les résultats de ces essais sont rassemblés dans le Tableau 10 ci-après.
• * Chaque valeur représente la moyenne de quatre animaux d'experience (souris) • ** La concentration de 5-HT est exprimée par gramme de tissu frais (cerveau).

M. Leprae = experiment: Multiplication of M. leprae in mouse foot pads; format: in vivo, Mycobacterium leprae; details: 20 mg/kg par voie orale, daily from inoculation
Experimental: Le tableau 7 contient les résultats d'essai concernant l'activité du DF-5HTP sur les M. leprae sur les pattes de souris. Le protocole experimental était le suivant:
MESTER, L., and BALAKRISHNAN, S., Desoxyfructo-serotonin: First Human Metabolite with Antileprosy Activity. Acta Lepr. N°83, 21, 1981.
La dose de DF-5HTP était de 0,5 mg par 5 g de nourriture et par souris. Cette dose était administrée tous les jours a partir de la date d'inoculation. Les essais ont porté sur un lot de 24 souris.
Protocole: Sur la patte de chaque souris on a inoculé 5 x 10^6 M.leprae montrant un index morphologique (I. M.) = 2 %. Les chiffres suivis par X indiquent la multiplication de M. leprae initialement inoculé. (Pour la méthode utilisée voir MESTER, L., and BALAKRISHNAN, S., Desoxyfructo-serotonin: First Human Metabolite with Antileprosy Activity, Acta Lepr. N° 83, 21,1981.

Rythme cardiaque = experiment: Cardiovascular activity: heart rate; format: in vivo
From the text: Le protocole experimental était celui décrit dans "Sugar Derivatives of Indolamines. part V: Cardiovascular Effects and "Anti-stress" Activity of Desoxyfructose Derivative of Serotonin and 5-Metho-xy- tryptamin", L. Mester, M. Mester, K.P. Bhargava, C. Labrid, G. Dureng and M. Cheucle, THROMBOSIS […], 15,245,1979.

souris [4] = experiment: Tremor score in mice pretreated with a MAO inhibitor (Harmaline); format: in vivo; details: for Score total (tremblements): Harmaline pretreatment, 5 souris
Experimental: Les conditions expérimentales étaient les suivantes:
Chez des souris prétraitées par un inhibiteur de la MAO (Harmaline 25 mg/kg/ P.O.), I'injection de 5HTP (1 heure après l'IMAO) entraîne l'apparition de tremblements plus ou moins généralisés, accompagnés ou non d'hyperactivité motrice et qui sont dus a I'accumulation de sérotonine non dégradée au niveau des récepteurs post-synaptiques cérébraux. On peut établir pour chaque souris une cotation chiffrée suivant l'intensité des symptômes observes au cours du temps (cotation toutes les 5 min. entre la 5ème et la 45ème min. après I'injection de 5 HTP puis toutes les 15 min. jusqu'à la 75ème min.).
On additionne en une score total tous les chiffres obtenus aux différents temps sur des lots de 5 ou 10 souris.
Les actions du 5 HTP ont été comparées a celles du DF-5HTP.

[5] = Solubility in water and organic solvents; format: physicochemical
From the text: II est insoluble dans le benzene, l'acetate d'ethyle et le chloroforme.

souris [6] = experiment: Pentobarbital sleeping time; format: in vivo
Experimental: as §1

[7] = test system: cellules des neuroblastomes; experiment: Inhibition of serotonin incorporation into neuroblastoma cells in vitro; format: cell-based; details: 0°C
[8] = 10 mg par voie cérébroventriculaire

## O=C(O)C(Cc1c[nH]c2ccc(O)cc12)NCC1(O)OCC(O)C(O)C1O (stereo not drawn) [DF-5HTP, N-1-desoxyfructo-5-hydroxytryptophane]
Souris [1]; 100 mg/kg (ip), Tableau 2
  Cadence respira-toire: sans effet
Souris [1]; 174 mg/kg (ip)
  Cadence respira-toire: sans effet
Souris [2]; 100 mg/kg (ip), 15 min
  Essai à la tige Rotarod: Défaut de coordination musculaire observé (Nbre de souris): 0/5
Souris [2]; 100 mg/kg (ip), 30 min
  Essai à la tige Rotarod: Défaut de coordination musculaire observé (Nbre de souris): 0/5
Souris [2]; 100 mg/kg (ip), 60 min
  Essai à la tige Rotarod: Défaut de coordination musculaire observé (Nbre de souris): 0/5
Souris [2]; 174 mg/kg (ip), 15 min
  Essai à la tige Rotarod: Défaut de coordination musculaire observé (Nbre de souris): 0/5
Souris [2]; 174 mg/kg (ip), 30 min
  Essai à la tige Rotarod: Défaut de coordination musculaire observé (Nbre de souris): 0/5
Souris [2]; 174 mg/kg (ip), 60 min
  Essai à la tige Rotarod: Défaut de coordination musculaire observé (Nbre de souris): 0/5
Souris [2]; 174 mg/kg i.p., témoin 11,3 ± 3,1
  Performance à l'essai Rotarod Moyenne (Sec): 16,4 ± 2,4 (30) Sec
[3]; 100 mg/kg i.p., 15 min., Solution Saline 60,0, mean of 4 souris
  Quantités de 5-HT (dans tout le cerveau): 87,5
[3]; 174 mg/kg i.p., 15 min., Solution Saline 60,0, mean of 4 souris
  Quantités de 5-HT (dans tout le cerveau): 75,0
[3]; 174 mg/kg i.p., 30 min., par gramme de tissu frais, Solution Saline 107
  Quantités de 5-HT (dans tout le cerveau): 200,4
[3]; 174 mg/kg i.p., 60 min., par gramme de tissu frais, Solution Saline 100
  Quantités de 5-HT (dans tout le cerveau): 160,8
M. Leprae; 4 mois après inoculation, témoins 33,8 X
  multiplication de M. Leprae sur les pattes des souris: 2,8 X
M. Leprae; 6 mois après inoculation, témoins 38,4 X
  multiplication de M. Leprae sur les pattes des souris: Négatif
Rythme cardiaque; [8]
  Rythme cardiaque Durée (min): non mani-festée à 150
  Rythme cardiaque Mesure à: 30 min
  Rythme cardiaque Pic: 75 min
Rythme cardiaque; 100 mg par voie intraveineuse
  Rythme cardiaque Durée: 45 min
  Rythme cardiaque Mesure à: 5 min
  Rythme cardiaque Pic: 10 min
Souris [4]; 150 mg/kg S.C. (mole for mole 75 mg/kg of 5 HTP)
  Score total (tremblements): 0
Souris [4]; 500 mg/kg S.C.
  Score total (tremblements): 0
Souris [4]; souris pretreated with Harmaline, overall statement
  activité dans l'essai des tremblements: inactif
[5]; benzene, acetate d'ethyle, chloroforme
  solubilité dans le benzene, l'acetate d'ethyle et le chloroforme: insoluble
[5]; eau
  soluble dans I'eau: facilement soluble
Souris [6]; 100 mg/kg (ip), 15 min, Tableau 2
  Temps de sommeil au pentobarbital % du témoin (témoin =100): 140 % du témoin
Souris [6]; 100 mg/kg (ip), 30 min
  Temps de sommeil au pentobarbital % du témoin (témoin =100): 114 % du témoin
Souris [6]; 100 mg/kg (ip), 60 min
  Temps de sommeil au pentobarbital % du témoin (témoin =100): 103 % du témoin
Souris [6]; 174 mg/kg (ip), 15 min
  Temps de sommeil au pentobarbital % du témoin (témoin =100): 93 % du témoin
Souris [6]; 174 mg/kg (ip), 30 min
  Temps de sommeil au pentobarbital % du témoin (témoin =100): 95 % du témoin
Souris [6]; 174 mg/kg (ip), 60 min
  Temps de sommeil au pentobarbital % du témoin (témoin =100): 91 % du témoin
[7]
  % Inhibition à 0°C de l'incorporation de la sérotonine dans les cellules nerveuses: 50%
